# Legend:
# Assay type in all cases: cell-based
# [1] = tested on: A. pleuropneumoniae, 6 isolates; assay: Minimal inhibitory concentrations, swine pathogen isolates
# Procedure: (§1) The antibacterial activity by the compounds of the present invention may be measured using a number of assays available in the art. […] Minimal inhibitory concentrations (MICs) were determined against the most prevalent pathogens in cattle (Mannheimia Haemolytica, 3 isolates) and swine (A. pleuropneumoniae, 6 isolates).The results are summarized in Table 7.
# [2] = tested on: Mannheimia Haemolytica, 3 isolates; assay: Minimal inhibitory concentrations, cattle pathogen isolates; settings: for MIC: Mannheimia haemolytica
# Procedure: as §1
# [3] = tested on: Mannhemia hemolytica KB346; assay: Paper disc assay, M. hemolytica KB346 (Tilmicosin-low sensitivity strain); settings: Table 5; 100 mg/6 mm disk
# Procedure: (§2) (1) Antibacterial Activities Against Mannheimia and Pasteurella were Determined by the Following Steps:
# (§3) 1) M. hemolytica KB345 (Tilmicosin-sensitivity strain) and M. hemolytica KB346 (Tilmicosin-low sensitivity strain) were provided. KB 345 strain stored at −80° C. was seeded to BHIB agar medium (10 mL) by using Microbank beads (Pro-Lab) and platinum nail. After statically incubating the KB 345 strain for 24 hours at 37° C., it was seeded to maintaining slant BHIB agar medium (7 mL) by using platinum loop, further statically incubated for 24 hours at 37° C. to obtain slant. One platinum loop of KB 345 strain stored at the slant was inoculated into a large test tube charged with BHIB liquid medium (10 mL) and then incubated for 24 hours at 37° C. with shaking.
# (§4) 2) A paper disc (ADVANTEC, Φ:6 mm) was impregnated with a solution of test compound and dried under reduced pressure.
# (§5) 3) To a melted BHIB agar medium was inoculated 1% of the broth obtained from step 1) above to prepare a test plate. After the medium set, the paper disc prepared in step 2) above was put on the plate and it was incubated at 37° C.
# (§6) 4) After one day, the inhibition zone diameter and clarity (A to E) were determined.
# For KB346 strain, the same procedures were repeated.
# [4] = tested on: Mannhemia hemolytica KB345; assay: Paper disc assay, M. hemolytica KB345 (Tilmicosin-sensitivity strain); settings: for Inhibition zone (mm): Table 4; for zone of inhibition at 1 mg/disc: 1 mg/6 mm disk
# Procedure: as §2, §3, §4, §5, §6
# [5] = tested on: Micrococcus luteus ATCC9341; assay: Paper disc assay, Micrococcus luteus (l)
# Procedure: (§7) (2) Antibacterial activities against other bacteria were determined with Micrococcus luteus ATCC9341 (1), Bacillus subtilis […] (s), Escherichia coli NIHJ (c), Xanthomonas campestris KB88 (X), Mucor racemosus IFO 4581 (Mu) and Candida albicans ATCC 64548 (Ca).
# (§8) Bacillus subtilis ATCC6633 was incubated in Davis synthetic medium and then the seed broth was combined with the medium in the ratio of 1:99 to obtain a test plate. Micrococcus luteus ATCC9341, Escherichia coli NIHJ and Xanthomonas campestris KB88 were respectively incubated in Nutrient agar medium and inoculated at 0.2%, 0.5% and 1.0%. Mucor racemosus IFO 4581 and Candida albicans ATCC 64548 were respectively incubated in GY agar medium and then inoculated at 0.3% and 0.2%.
# (§9) A paper disc (ADVANTEC, Φ:6 mm) was impregnated with a solution of test compound and dried under reduced pressure. The paper disc was put on the test plate and it was incubated for 24 hours at 37° C. After incubation, the inhibition zone diameter and clarity (A to E) were determined.
# Escherichia coli NIHJ = assay: Paper disc assay, Escherichia coli (c)
# Procedure: as §7, §8, §9
# [6] = tested on: Bacillus subtilis ATCC6633; assay: Paper disc assay, Bacillus subtilis (S)
# Procedure: as §7, §8, §9
# [7] = tested on: Xanthomonas campestris KB88; assay: Paper disc assay, Xanthomonas campestris (X)
# Procedure: as §7, §8, §9
Structure (SMILES),MICs ([1]; pleuropneumoniae isolate 2) [µg/mL],MICs ([1]; pleuropneumoniae isolate 3) [µg/mL],MICs ([1]; pleuropneumoniae isolate 4) [µg/mL],MICs ([1]; pleuropneumoniae isolate 5) [µg/mL],MICs ([1]; pleuropneumoniae isolate 6) [µg/mL],Inhibition zone (mm) ([5]; 0.1 mg/6 mm disc),Inhibition zone (mm) ([5]; 1 mg/6 mm disc),Inhibition zone (mm) ([5]; 10 mg/6 mm disc),"zone of inhibition at 1 mg/disc ([4]; 24 h, Table 2) [mm]","zone of inhibition at 3 mg/disc ([4]; 24 h, Table 2, 3 mg/6 mm disk) [mm]",Inhibition zone (mm) (Escherichia coli NIHJ; 10 mg/6 mm disc),Inhibition zone (mm) ([6]; 0.1 mg/6 mm disc),Inhibition zone (mm) ([6]; 1 mg/6 mm disc),Inhibition zone (mm) ([6]; 10 mg/6 mm disc),Inhibition zone (mm) ([7]; 0.1 mg/6 mm disc),Inhibition zone (mm) ([7]; 1 mg/6 mm disc),Inhibition zone (mm) ([7]; 10 mg/6 mm disc),also measured
"CC[C@H]1OC(=O)C[C@@H](O)[C@H](C)[C@@H](O[C@@H]2O[C@H](C)C(O)C(N(C)C)C2O)[C@@H](CC=O)C[C@@H](C)C(=O)/C=C/C(C)=C/[C@@H]1Cn1cc(-c2ccc(-c3ccccc3)cc2)nn1 (stereo partly drawn) [YT104, 23-(4-biphenyl-1H-1,2,3-triazol-1-yl)-23-Deoxy-5-O-mycaminosyltylonolide]",>16,>16,>16,>16,>16,–,–,–,–,–,–,–,–,–,–,–,–,"MIC ([1]; Actinobacillus pleuropneumoniae, pleuropneumoniae isolate 1): > 16 µg/mL; MIC ([2]; M. haemolytica isolate 1): 8 µg/mL; MIC ([2]; M. haemolytica isolate 2): 4 µg/mL; MIC ([2]; M. haemolytica isolate 3): 8 µg/mL"
"CC[C@H]1OC(=O)C[C@@H](O)[C@H](C)[C@@H](O[C@@H]2O[C@H](C)[C@@H](O)[C@H](N(C)C)[C@H]2O)[C@@H](CCn2cc(-c3ccccc3)nn2)C[C@@H](C)C(=O)/C=C/C(C)=C/[C@@H]1CO [YT112, 20-(4-phenyl-1H-1,2,3-triazol-1-yl)-20-deoxo-5-O-mycaminosyltylonolide]",4,4,8,4,8,–,–,–,–,–,–,–,–,–,–,–,–,MICs ([1]; pleuropneumoniae isolate 1): 4 µg/mL; Inhibition zone (mm) [3]: 11.5 mm; MICs ([2]; M. haemolytica isolate 1): 8 µg/mL; MICs ([2]; M. haemolytica isolate 2): 4 µg/mL; MICs ([2]; M. haemolytica isolate 3): 8 µg/mL; Inhibition zone (mm) ([4]; 3 mg/6 mm disk): 17.0 mm; Inhibition zone (mm) ([4]; 10 mg/6 mm disk): 20.0 mm; Inhibition zone (mm) ([4]; 30 mg/6 mm disk): 25.0 mm; Inhibition zone (mm) ([4]; 100 mg/6 mm disk): 29.0 mm
"CC[C@H]1OC(=O)C[C@@H](O)[C@H](C)[C@@H](O[C@@H]2O[C@H](C)[C@@H](O)[C@H](N(C)C)[C@H]2O)[C@@H](CCn2cc(-c3ccsc3)nn2)C[C@@H](C)C(=O)/C=C/C(C)=C/[C@@H]1CO[C@@H]1O[C@H](C)[C@@H](O)[C@@H](OC)[C@H]1OC [YT14, 20-(4-(thiophene-3-yl)-1H-1,2,3-triazol-1-yl)-20-deoxodesmycosin]",–,–,–,–,–,13.5,20.5,26.5,11,14,7,8,11,15,7,16,22,"zone of inhibition at 10 mg/disc ([4]; 24 h, Table 2, 10 mg/6 mm disk): 16.5 mm; zone of inhibition at 30 mg/disc ([4]; 24 h, Table 2, 30 mg/6 mm disk): 19.5 mm; zone of inhibition at 100 mg/disc ([4]; 24 h, Table 2, 100 mg/6 mm disk): 22 mm"
"CC[C@H]1OC(=O)C[C@@H](O)[C@H](C)[C@@H](O[C@@H]2O[C@H](C)[C@@H](O)C(N(C)C)C2O)[C@@H](CCN2CC(C)CC(C)C2)C[C@@H](C)C(=O)/C=C/C(C)=C/[C@@H]1CO[C@@H]1OC(C)[C@@H](O)[C@H](OC)C1OC (stereo partly drawn) [Tilmicosin, reference compound]",–,–,–,–,–,12,19,27.5,10.7,13.5,20,14,11,18,12,20,30,Inhibition zone (mm) (Escherichia coli NIHJ; 1 mg/6 mm disc): 13 mm

# From patent publication US9593140B2, “Antibacterial tylosin derivatives and methods for their preparation” (Bayer Intellectual Property GmbH, priority 2011, dated 2017)
